# Test results taken from patent publication US20170368082A1, “FORMULATIONS OF BRINCIDOFOVIR” (priority 2016, published 2017).
# Where “and” joins values, the source holds several entries; their conditions need not be identical. Equal entries are not always repeated. Where two headings read alike, the source gives them in different places.
# Experiment: Phase 2 toxicokinetics of brincidofovir and cidofovir in plasma
# Format: in vivo, Sprague-Dawley CD rats
# Set-up: Imputed Concentration, Mean: unit: ng/mL
# Conditions: for cidofovir Concentration (C): individual animals; for concentration at 1 h / concentration at 2 h / concentration at 8 h / concentration at 24 h / concentration at 0 h: Sprague-Dawley CD, rat, intravenous, 1 mg/kg; for concentration at 1 h / concentration at 2 h / concentration at 8 h / concentration at 24 h / concentration at 0 h / Imputed Concentration, individual animals / Imputed Concentration, Mean: plasma, BLQ imputed as zero
# Procedure: Plasma samples (108) were collected 2 hours following the initiation of dosing on Day 1 and Day 7 (Group 1), or at 1, 2, 8, and 24 hours following the initiation of dosing on Day 1, and prior to administration and at 2, 8, and 24 hours following the initiation of dosing on Day 7 (Groups 2 and 3), and analyzed to determine the concentrations of brincidofovir and the metabolite, cidofovir), by LC/MS/MS.
# Approximately 0.4 mL of whole blood was obtained via the tail vein from each animal at each time point. Animals were not fasted prior to blood collection. Blood was collected into tubes containing K2EDTA anticoagulant and placed on wet ice in an upright position, per facility SOP prior to processing. Plasma was separated by centrifugation (10 minutes at approximately 2000 g, at approximately 2-8° C.). Approximately 0.10 mL of plasma was transferred into a single cryotube appropriately labeled with study number, animal number, time point, date of sampling and sample type. Remaining plasma was transferred into a second cryotube and retained as a backup sample. Plasma frozen at approximately −80±10° C. within approximately 2 hours after collection of each blood sample until analysis. Animals were euthanized (CO2 inhalation) after the final blood collection.
# In general, TK parameters were estimated using mean plasma concentrations of brincidofovir and cidofovir derived from the composite blood sampling design using Phoenix WinNonLin (V 6.3).
# A composite blood sampling design was used such that each rat was sampled twice per sampling day. Blood was collected via tail vein from unanesthetized animals into tubes containing anticoagulant and placed on wet ice in an upright position. Animals were not fasted prior to blood collection. Plasma was separated by centrifugation (for 10 minutes at approximately 2000 g, at approximately 2-8° C.), and transferred into individually labeled cryotubes. All cryotubes containing the collected plasma samples were appropriately labeled as to study number, animal number, time point, date of sampling and sample type. All plasma samples were obtained and frozen at approximately −80° C. (±10° C.) within approximately 2 hours after collection of each blood sample until analysis.
# Rat plasma bioanalysis was conducted by Pyxant Laboratories. Plasma samples were analyzed for concentrations of brincidofovir and cidofovir using a method based upon protein precipitation extraction followed by LC-MS/MS analysis; calibration ranges for brincidofovir and cidofovir were 1.00-1500 ng/mL and 5.00-750 ng/mL, respectively, (Pyxant study number 3025) for a 50 μL aliquot of rat plasma. Sample analysis for ISR was not performed as part of this non-GLP study.
# For the generation of Mean Profiles, all sample concentrations that were below the limit of quantitation (BLQ) were set to 0.
# All pharmacokinetic parameter estimates were completed using a Non-Compartmental Model (Model 200-202 for IV infusion administration). The AUClast and AUCinf were calculated using the linear up log down trapezoidal rule.
# [1] = brincidofovir 1 mg/kg 2-h IV infusion, female rats, Day 7, 0 h
# [2] = brincidofovir 1 mg/kg 2-h IV infusion, female rats, Day 7, 2 h
# [3] = brincidofovir 1 mg/kg 2-h IV infusion, female rats, Day 7, 8 h
# [4] = brincidofovir 1 mg/kg 2-h IV infusion, female rats, Day 7, 24 h
# [5] = brincidofovir 1 mg/kg 2-h IV infusion, male rats, Day 7, 2 h
# [6] = brincidofovir 1 mg/kg 2-h IV infusion, male rats, Day 7, 8 h
# [7] = brincidofovir 1 mg/kg 2-h IV infusion, male rats, Day 7, 24 h
# [8] = brincidofovir 15 mg/kg 2-h IV infusion, female rats, Day 1, 1 h
# [9] = brincidofovir 15 mg/kg 2-h IV infusion, female rats, Day 1, 2 h
# [10] = brincidofovir 15 mg/kg 2-h IV infusion, female rats, Day 1, 8 h
# [11] = brincidofovir 15 mg/kg 2-h IV infusion, female rats, Day 1, 24 h
# [12] = brincidofovir 15 mg/kg 2-h IV infusion, female rats, Day 7, 0 h
# [13] = brincidofovir 15 mg/kg 2-h IV infusion, female rats, Day 7, 2 h
# [14] = brincidofovir 15 mg/kg 2-h IV infusion, male rats, Day 1, 1 h
# [15] = brincidofovir 15 mg/kg 2-h IV infusion, male rats, Day 1, 2 h
# [16] = brincidofovir 15 mg/kg 2-h IV infusion, male rats, Day 1, 8 h
# [17] = brincidofovir 15 mg/kg 2-h IV infusion, male rats, Day 1, 24 h
# [18] = brincidofovir 15 mg/kg 2-h IV infusion, male rats, Day 7, 0 h
# [19] = brincidofovir 15 mg/kg 2-h IV infusion, male rats, Day 7, 2 h
smiles,measurement,setting,value
Nc1ccn(C[C@@H](CO)OCP(=O)(O)O)c(=O)n1 [Cidofovir],cidofovir Concentration (C),"brincidofovir 1 mg/kg, Female, Day 1, 1 h",BLQ
same,cidofovir Concentration (C),"brincidofovir 1 mg/kg, Female, Day 1, 8 h",BLQ
same,cidofovir Concentration (C),"brincidofovir 1 mg/kg, Female, Day 1, 24 h",BLQ
same,cidofovir Concentration (C),"brincidofovir 1 mg/kg, Female, Day 7, 0 h",BLQ
same,cidofovir Concentration (C),"brincidofovir 1 mg/kg, Female, Day 7, 24 h",BLQ
same,cidofovir Concentration (C),"brincidofovir 1 mg/kg, Male, Day 1, 1 h",BLQ
same,cidofovir Concentration (C),"brincidofovir 1 mg/kg, Male, Day 1, 2 h",BLQ
same,cidofovir Concentration (C),"brincidofovir 1 mg/kg, Male, Day 1, 8 h",BLQ
same,cidofovir Concentration (C),"brincidofovir 1 mg/kg, Male, Day 1, 24 h",BLQ
same,cidofovir Concentration (C),"brincidofovir 1 mg/kg, Male, Day 7, 0 h",BLQ
same,cidofovir Concentration (C),"brincidofovir 1 mg/kg, Male, Day 7, 2 h",BLQ
same,cidofovir Concentration (C),"brincidofovir 1 mg/kg, Male, Day 7, 24 h",BLQ
same,cidofovir Concentration (C),"brincidofovir 15 mg/kg, Female, Day 7, 0 h",BLQ
same,cidofovir Concentration (C),"brincidofovir 15 mg/kg, Male, Day 1, 1 h",BLQ
same,cidofovir Concentration (C),"brincidofovir 15 mg/kg, Male, Day 7, 0 h",BLQ
same,concentration at 1 h,"female, brincidofovir 1 mg/kg 2-h IV infusion, female rats, Day 1, 1 h, read-out: Imputed Concentration, Mean",0 ng/mL
same,concentration at 1 h,"female, brincidofovir 1 mg/kg 2-h IV infusion, female rats, Day 1, 1 h, read-out: Imputed Concentration, individual animals",0 ng/mL
same,concentration at 2 h,"female, brincidofovir 1 mg/kg 2-h IV infusion, female rats, Day 1, 2 h, read-out: Imputed Concentration, Mean",9.35 ng/mL
same,concentration at 2 h,"female, brincidofovir 1 mg/kg 2-h IV infusion, female rats, Day 1, 2 h, read-out: Imputed Concentration, individual animals",9.62 ng/mL
same,concentration at 8 h,"female, brincidofovir 1 mg/kg 2-h IV infusion, female rats, Day 1, 8 h, read-out: Imputed Concentration, Mean",4.24 ng/mL
same,concentration at 24 h,"female, brincidofovir 1 mg/kg 2-h IV infusion, female rats, Day 1, 24 h, read-out: Imputed Concentration, Mean",0 ng/mL
same,concentration at 24 h,"female, brincidofovir 1 mg/kg 2-h IV infusion, female rats, Day 1, 24 h, read-out: Imputed Concentration, individual animals",0 ng/mL
same,concentration at 0 h,"female, brincidofovir 1 mg/kg 2-h IV infusion, female rats, Day 7, 0 h, read-out: Imputed Concentration, individual animals",0 ng/mL
same,concentration at 1 h,"male, brincidofovir 1 mg/kg 2-h IV infusion, male rats, Day 1, 1 h, read-out: Imputed Concentration, Mean",0 ng/mL
same,concentration at 1 h,"male, brincidofovir 1 mg/kg 2-h IV infusion, male rats, Day 1, 1 h, read-out: Imputed Concentration, individual animals",0 ng/mL
same,concentration at 2 h,"male, brincidofovir 1 mg/kg 2-h IV infusion, male rats, Day 1, 2 h, read-out: Imputed Concentration, Mean",0 ng/mL
same,concentration at 2 h,"male, brincidofovir 1 mg/kg 2-h IV infusion, male rats, Day 1, 2 h, read-out: Imputed Concentration, individual animals",0 ng/mL
same,concentration at 8 h,"male, brincidofovir 1 mg/kg 2-h IV infusion, male rats, Day 1, 8 h, read-out: Imputed Concentration, Mean",1.95 ng/mL
same,concentration at 24 h,"male, brincidofovir 1 mg/kg 2-h IV infusion, male rats, Day 1, 24 h, read-out: Imputed Concentration, Mean",0 ng/mL
same,concentration at 24 h,"male, brincidofovir 1 mg/kg 2-h IV infusion, male rats, Day 1, 24 h, read-out: Imputed Concentration, individual animals",0 ng/mL
same,concentration at 0 h,"male, brincidofovir 1 mg/kg 2-h IV infusion, male rats, Day 7, 0 h, read-out: Imputed Concentration, Mean",0 ng/mL
same,concentration at 0 h,"male, brincidofovir 1 mg/kg 2-h IV infusion, male rats, Day 7, 0 h, read-out: Imputed Concentration, individual animals",0 ng/mL
same,"Imputed Concentration, individual animals","brincidofovir 1 mg/kg 2-h IV infusion, female rats, Day 1, 1 h",0.00 ng/mL
same,"Imputed Concentration, individual animals","brincidofovir 1 mg/kg 2-h IV infusion, female rats, Day 1, 2 h",6.22 ng/mL and 12.2 ng/mL
same,"Imputed Concentration, individual animals","brincidofovir 1 mg/kg 2-h IV infusion, female rats, Day 1, 8 h",7.12 ng/mL and 5.60 ng/mL and 0.00 ng/mL
same,"Imputed Concentration, individual animals","brincidofovir 1 mg/kg 2-h IV infusion, female rats, Day 1, 24 h",0.00 ng/mL
same,"Imputed Concentration, Mean",[1],0.00 ng/mL
same,"Imputed Concentration, individual animals",[1],0.00 ng/mL
same,"Imputed Concentration, Mean",[2],15.0 ng/mL
same,"Imputed Concentration, individual animals",[2],13.5 ng/mL and 13.8 ng/mL and 17.6 ng/mL
same,"Imputed Concentration, Mean",[3],7.57 ng/mL
same,"Imputed Concentration, individual animals",[3],9.51 ng/mL and 7.84 ng/mL and 5.36 ng/mL
same,"Imputed Concentration, Mean",[4],0.00 ng/mL
same,"Imputed Concentration, individual animals",[4],0.00 ng/mL
same,"Imputed Concentration, individual animals","brincidofovir 1 mg/kg 2-h IV infusion, male rats, Day 1, 1 h",0.00 ng/mL
same,"Imputed Concentration, individual animals","brincidofovir 1 mg/kg 2-h IV infusion, male rats, Day 1, 2 h",0.00 ng/mL
same,"Imputed Concentration, individual animals","brincidofovir 1 mg/kg 2-h IV infusion, male rats, Day 1, 8 h",5.85 ng/mL and 0.00 ng/mL (2×)
same,"Imputed Concentration, individual animals","brincidofovir 1 mg/kg 2-h IV infusion, male rats, Day 1, 24 h",0.00 ng/mL
same,"Imputed Concentration, individual animals","brincidofovir 1 mg/kg 2-h IV infusion, male rats, Day 7, 0 h",0.00 ng/mL
same,"Imputed Concentration, Mean",[5],0.00 ng/mL
same,"Imputed Concentration, individual animals",[5],0.00 ng/mL
same,"Imputed Concentration, Mean",[6],5.73 ng/mL
same,"Imputed Concentration, individual animals",[6],5.67 ng/mL and 5.45 ng/mL and 6.07 ng/mL
same,"Imputed Concentration, Mean",[7],0.00 ng/mL
same,"Imputed Concentration, individual animals",[7],0.00 ng/mL
same,"Imputed Concentration, Mean",[8],15.1
same,"Imputed Concentration, individual animals",[8],14.5 and 20.5 and 10.3
same,"Imputed Concentration, Mean",[9],28.7
same,"Imputed Concentration, individual animals",[9],10.9 and 41.2 and 34.1
same,"Imputed Concentration, Mean",[10],38.6
same,"Imputed Concentration, individual animals",[10],37.3 and 37.7 and 40.7
same,"Imputed Concentration, Mean",[11],22.1
same,"Imputed Concentration, individual animals",[11],24.6 and 23.2 and 18.6
same,"Imputed Concentration, Mean",[12],0.00
same,"Imputed Concentration, individual animals",[12],0.00
same,"Imputed Concentration, Mean",[13],34.5
same,"Imputed Concentration, individual animals",[13],20.2 and 49.1 and 34.2
same,"Imputed Concentration, individual animals","brincidofovir 15 mg/kg 2-h IV infusion, female rats, Day 7, 8 h",36.4 and 54.2
same,"Imputed Concentration, Mean",[14],5.35
same,"Imputed Concentration, individual animals",[14],8.97 and 0.00 and 7.08
same,"Imputed Concentration, Mean",[15],18.0
same,"Imputed Concentration, individual animals",[15],25.9 and 13.1 and 15.1
same,"Imputed Concentration, Mean",[16],32.8
same,"Imputed Concentration, individual animals",[16],35.8 and 29.5 and 33.0
same,"Imputed Concentration, Mean",[17],16.7
same,"Imputed Concentration, individual animals",[17],20.5 and 14.0 and 15.5
same,"Imputed Concentration, Mean",[18],0.00
same,"Imputed Concentration, individual animals",[18],0.00
same,"Imputed Concentration, Mean",[19],24.0
same,"Imputed Concentration, individual animals",[19],38.8 and 15.0 and 18.3
same,"Imputed Concentration, individual animals","brincidofovir 15 mg/kg 2-h IV infusion, male rats, Day 7, 8 h",38.4 and 31.1 and 28.8
